These results are taken from patent US12522597B2, “Methods and compositions for modulating splicing” (Skyhawk Therapeutics, Inc., priority 2019, dated 2026).

Where two headings read alike, the source gives them in different places.

Series [1] relates to mHTT protein. The experiment in a line: mHTT protein assay (2B7-MW1, Mesoscale Discovery). It counts as cell-based, human. The note with it: GM04724 (CAG 70/20) Huntington's disease patient lymphoblast cells, 48 hours, 2B7-MW1 MSD; read-out: HTT Potency - Protein EC50 mHTT (average). The method, boiled down: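 mHTT levels were read with the 2B7-MW1 antibody pair (N17 and polyQ epitopes) on MSD after 48 h dosing, 10 μM–0.6 nM. Cells were GM04724 HD lymphoblasts (CAG 70/20). A replica plate was read by CTG for cell viability.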

Series [2] relates to MDR1-MDCK cell monolayers. Description: MDCK-MDR1 permeability assay (BBB penetration potential). Type of series: in vitro ADME. The note with it: dog, MDCK-MDR1, 120 min, 5 μM, pH 7.4. On the procedure:
(§1) Each determination is performed in duplicate. […] Analytical conditions are outlined below.

Series [3] has as its system MDR1. Described as above. It counts as in vitro ADME. The following applies: dog; for efflux ratio at 120 min, 5 μM: MDCK-MDR1, pH 7.4, MDCK-MDR1: Efflux; for Papp A→B at 120 min, 5 μM: MDCK-MDR1, pH 7.4, MDCK-MDR1: Papp A-B; for Papp B→A at 120 min, 5 μM: MDCK-MDR1, pH 7.4, MDCK-MDR1: Papp B-A. On the procedure:
as §1

The test system of series [4] is Huntingtin (HTT) transcripts. Description: Quantitative splicing assay (HTT), qPCR. It counts as cell-based. The following applies: Homo sapiens, GM04724 (CAG 70/20) Huntington's disease patient lymphoblasts, 24 h. The method, boiled down:
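Read-out is TaqMan qPCR on cDNA, quantifying inclusion of a cryptic exon within HTT intron 49. Cells were Huntington's patient lymphoblasts GM04724 (CAG 70/20), treated for 24 h at 0.15 nM–2.5 uM compound in 0.1% DMSO.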

[5] abbreviates: qPCR HTTex49_50, read-out: HTT Potency - Splicing: E49-50 EC50 (average).
Where [6] appears, read: qPCR cryptic exon 49b inclusion, read-out: HTT Potency - Splicing: E49b EC50 (average).

`Cn1c(=O)oc2cc(-c3ccc(O[C@H]4C[C@@H]5CCC[C@@H](N5)[C@H]4F)nn3)c(O)cc21` (single isomer, unassigned) [74-ENT2]: the EC50 in series [1] lay in the range of 501 to 10000 nM. Further, in series [2], the “MDCK-MDR1: % Recov A-B” value is 87% and the “MDCK-MDR1: % Recov B-A” value is listed as 75%. Moreover, in series [3], the efflux ratio at 120 min, 5 μM was 5; the Papp A→B at 120 min, 5 μM was 6.96 ×10⁻⁶ cm/s; the Papp B→A at 120 min, 5 μM was found to be 31.4 ×10⁻⁶ cm/s. Further, in series [4] (setting [5]), the EC50 is 501 to 10000 nM. For the same molecule, in series [4] (setting [6]), the EC50 fell in the range of 501 to 10000 nM.
As for `Cn1cc(-c2cc(O)c(-c3ccc(O[C@@H]4C[C@H]5CC[C@H](N5)[C@@H]4F)nn3)cc2F)cn1` (single isomer, unassigned) [61-ENT1], in series [1], the concentration giving a half-maximal response (EC50) is 16 to 50 nM. For the same molecule, in series [2], the “MDCK-MDR1: % Recov A-B” value amounted to 43% and the “MDCK-MDR1: % Recov B-A” value came out at 79%. Also, in series [3], the efflux ratio at 120 min, 5 μM came out at 3; the Papp A→B at 120 min, 5 μM was 4.83 ×10⁻⁶ cm/s; the Papp B→A at 120 min, 5 μM was 13.8 ×10⁻⁶ cm/s. In addition, the EC50 in series [4] (setting [5]) was 16 to 50 nM. For the same molecule, the EC50 in series [4] (setting [6]) is 0.01 to 15 nM.
As to `Oc1cc(-c2ccn3ccnc3c2)ccc1-c1ccc(O[C@@H]2C[C@H]3CCC[C@H](N3)[C@@H]2F)nn1` (single isomer, unassigned) [83-ENT1], the half-maximal effective concentration (EC50) in series [1] is 101 to 500 nM. Also, in series [2], the “MDCK-MDR1: % Recov A-B” value was 48% and the “MDCK-MDR1: % Recov B-A” value was 64%. Also, in series [3], the efflux ratio at 120 min, 5 μM turned out to be 23; the Papp A→B at 120 min, 5 μM stood at 1.05 ×10⁻⁶ cm/s; the Papp B→A at 120 min, 5 μM stood at 23.8 ×10⁻⁶ cm/s. Further, the EC50 in series [4] (setting [5]) is 501 to 10000 nM. The EC50 in series [4] (setting [6]) lay in the range of 501 to 10000 nM.
In the case of `Cn1ccc2cc(-c3ccc(O[C@H]4C[C@]5(C)CCC[C@@](C)(N5)[C@H]4F)nn3)c(O)cc2c1=O` (single isomer, unassigned) [156-ENT2], the EC50 in series [1] was 0.01 to 15 nM. Also, in series [2], the “MDCK-MDR1: % Recov A-B” value came out at 80% and the “MDCK-MDR1: % Recov B-A” value amounted to 99%. For the same molecule, in series [3], the efflux ratio at 120 min, 5 μM amounted to 9; the Papp A→B at 120 min, 5 μM is 4.9 ×10⁻⁶ cm/s; the Papp B→A at 120 min, 5 μM came to 46.3 ×10⁻⁶ cm/s. The EC50 in series [4] (setting [5]) fell in the range of 16 to 50 nM. In series [4] (setting [6]), the EC50 fell in the range of 16 to 50 nM.
On to `Cc1ncc(-c2ccc(-c3ccc(O[C@@H]4C[C@H]5CCC[C@H](N5)[C@@H]4F)nn3)c(O)c2)o1` (single isomer, unassigned) [93-ENT1], for which the EC50 in series [1] lay in the range of 16 to 50 nM. Moreover, in series [2], the “MDCK-MDR1: % Recov A-B” value is on record as 75% and the “MDCK-MDR1: % Recov B-A” value was found to be 78%. Besides, in series [3], the efflux ratio at 120 min, 5 μM stood at 4; the Papp A→B at 120 min, 5 μM was 8.72 ×10⁻⁶ cm/s; the Papp B→A at 120 min, 5 μM is 38.7 ×10⁻⁶ cm/s. Also, in series [4] (setting [5]), the EC50 lay in the range of 16 to 50 nM. For the same molecule, the EC50 in series [4] (setting [6]) lay within 16 to 50 nM.
For `C[C@@]12CCC[C@@](C)(N1)[C@@H](F)[C@@H](Oc1ccc(-c3ccc(-c4cn[nH]c4)cc3O)nn1)C2` (single isomer, unassigned) [147-ENT1], the EC50 in series [1] lay within 0.01 to 15 nM. Besides, in series [2], the “MDCK-MDR1: % Recov A-B” value is reported as 78% and the “MDCK-MDR1: % Recov B-A” value is 83%. In series [3], the efflux ratio at 120 min, 5 μM came out at 13; the Papp A→B at 120 min, 5 μM was 4.61 ×10⁻⁶ cm/s; the basolateral-to-apical permeability (Papp B→A) at 120 min, 5 μM turned out to be 58.1 ×10⁻⁶ cm/s. Moreover, the EC50 in series [4] (setting [5]) lay in the range of 0.01 to 15 nM. Besides, the EC50 in series [4] (setting [6]) was 0.01 to 15 nM.
On to `Oc1cc(-c2nnco2)ccc1-c1ccc(O[C@@H]2C[C@H]3CCC[C@H](N3)[C@@H]2F)nn1` (single isomer, unassigned) [117-ENT1], for which the EC50 in series [1] fell in the range of 51 to 100 nM. Also, in series [2], the “MDCK-MDR1: % Recov A-B” value was 85% and the “MDCK-MDR1: % Recov B-A” value was determined as 106%. Also, in series [3], the efflux ratio at 120 min, 5 μM was determined as 6; the Papp A→B at 120 min, 5 μM was found to be 7.92 ×10⁻⁶ cm/s; the Papp B→A at 120 min, 5 μM amounted to 47.5 ×10⁻⁶ cm/s. In addition, the EC50 in series [4] (setting [5]) was in the range of 101 to 500 nM. The EC50 in series [4] (setting [6]) was 101 to 500 nM.
Regarding `Cn1ccc2cc(O)c(-c3ccc(O[C@H]4C[C@@H]5CC[C@@H](N5)[C@H]4F)nn3)cc2c1=O` (single isomer, unassigned) [129-ENT1], the EC50 in series [1] lay in the range of 16 to 50 nM. In series [2], the “MDCK-MDR1: % Recov A-B” value was found to be 89% and the “MDCK-MDR1: % Recov B-A” value is recorded as 91%. Also, in series [3], the efflux ratio at 120 min, 5 μM was determined as 12; the Papp A→B at 120 min, 5 μM worked out at 4.29 ×10⁻⁶ cm/s; the Papp B→A at 120 min, 5 μM turned out to be 52.8 ×10⁻⁶ cm/s. Also, in series [4] (setting [5]), the EC50 fell in the range of 101 to 500 nM. For the same molecule, the EC50 in series [4] (setting [6]) was 101 to 500 nM.
